Columns and labels:
Experiment in all cases: KINOMEscan
Type in all cases: binding
GCN2(Kin.Dom.2,S808G) = biological target: T1, GCN2(Kin.Dom.2,S808G) (Homo sapiens, UniProt Q9P2K8, S808G); conditions: 1 uM
T1 construct: GCN2(Kin.Dom.2,S808G); purchased Ambit KINOMEscan (DiscoverX)
Method in brief: (§1)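 Substrate-binding inhibition measured with compound present at 1 μM, single concentration, to pick out affected kinases.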

[1] = biological target: T2, TYK2(JH1domain-catalytic) (Homo sapiens, UniProt P29597); conditions: 1 uM
T2 construct: TYK2(JH1domain-catalytic); purchased Ambit KINOMEscan (DiscoverX)
Method in brief: as §1

SRMS = biological target: T3, SRMS (Homo sapiens, UniProt Q9H3Y6); conditions: 1 uM
T3 construct: purchased Ambit KINOMEscan (DiscoverX)
Method in brief: as §1

PIK3CG = biological target: T4, PIK3CG (Homo sapiens, UniProt P48736); conditions: 1 uM
T4 construct: purchased Ambit KINOMEscan (DiscoverX)
T4 sequence (P48736 whole entry): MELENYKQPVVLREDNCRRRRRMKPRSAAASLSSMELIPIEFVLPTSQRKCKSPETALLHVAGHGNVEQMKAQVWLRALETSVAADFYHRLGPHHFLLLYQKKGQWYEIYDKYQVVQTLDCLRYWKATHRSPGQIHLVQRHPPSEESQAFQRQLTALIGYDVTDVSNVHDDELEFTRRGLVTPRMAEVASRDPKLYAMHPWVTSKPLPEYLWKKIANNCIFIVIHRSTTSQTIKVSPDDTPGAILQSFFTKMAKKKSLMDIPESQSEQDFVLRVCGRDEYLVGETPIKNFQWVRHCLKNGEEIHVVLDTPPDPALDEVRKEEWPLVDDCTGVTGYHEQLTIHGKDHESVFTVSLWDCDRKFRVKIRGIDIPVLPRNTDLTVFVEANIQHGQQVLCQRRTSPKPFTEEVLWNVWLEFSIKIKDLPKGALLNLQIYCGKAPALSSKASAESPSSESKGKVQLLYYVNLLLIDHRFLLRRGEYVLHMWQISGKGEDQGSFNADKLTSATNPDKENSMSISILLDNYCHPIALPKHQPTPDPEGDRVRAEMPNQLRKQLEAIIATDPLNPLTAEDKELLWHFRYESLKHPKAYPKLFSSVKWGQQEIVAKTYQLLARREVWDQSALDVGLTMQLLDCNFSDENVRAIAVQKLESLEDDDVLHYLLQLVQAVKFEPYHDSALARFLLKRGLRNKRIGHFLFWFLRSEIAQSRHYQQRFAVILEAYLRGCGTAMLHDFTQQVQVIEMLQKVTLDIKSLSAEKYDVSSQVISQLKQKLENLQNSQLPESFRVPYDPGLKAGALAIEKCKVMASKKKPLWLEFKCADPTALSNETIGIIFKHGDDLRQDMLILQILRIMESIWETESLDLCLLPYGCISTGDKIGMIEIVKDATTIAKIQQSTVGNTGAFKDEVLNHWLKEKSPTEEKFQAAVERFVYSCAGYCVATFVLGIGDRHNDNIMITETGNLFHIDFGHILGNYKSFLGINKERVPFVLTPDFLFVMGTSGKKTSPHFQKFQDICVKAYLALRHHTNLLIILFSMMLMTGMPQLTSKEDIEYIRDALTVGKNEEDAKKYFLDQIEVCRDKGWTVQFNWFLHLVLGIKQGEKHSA
Method in brief: as §1

AMPK-alpha1 = biological target: T5, AMPK-alpha1 (Homo sapiens, UniProt Q13131); conditions: AMPK-alpha1, 1 uM
T5 construct: purchased Ambit KINOMEscan (DiscoverX)
Method in brief: as §1

RIPK1 = biological target: T6, RIPK1 (Homo sapiens, UniProt Q13546); conditions: RIPK1, 1 uM
T6 construct: purchased Ambit KINOMEscan (DiscoverX)
T6 sequence (Q13546 whole entry): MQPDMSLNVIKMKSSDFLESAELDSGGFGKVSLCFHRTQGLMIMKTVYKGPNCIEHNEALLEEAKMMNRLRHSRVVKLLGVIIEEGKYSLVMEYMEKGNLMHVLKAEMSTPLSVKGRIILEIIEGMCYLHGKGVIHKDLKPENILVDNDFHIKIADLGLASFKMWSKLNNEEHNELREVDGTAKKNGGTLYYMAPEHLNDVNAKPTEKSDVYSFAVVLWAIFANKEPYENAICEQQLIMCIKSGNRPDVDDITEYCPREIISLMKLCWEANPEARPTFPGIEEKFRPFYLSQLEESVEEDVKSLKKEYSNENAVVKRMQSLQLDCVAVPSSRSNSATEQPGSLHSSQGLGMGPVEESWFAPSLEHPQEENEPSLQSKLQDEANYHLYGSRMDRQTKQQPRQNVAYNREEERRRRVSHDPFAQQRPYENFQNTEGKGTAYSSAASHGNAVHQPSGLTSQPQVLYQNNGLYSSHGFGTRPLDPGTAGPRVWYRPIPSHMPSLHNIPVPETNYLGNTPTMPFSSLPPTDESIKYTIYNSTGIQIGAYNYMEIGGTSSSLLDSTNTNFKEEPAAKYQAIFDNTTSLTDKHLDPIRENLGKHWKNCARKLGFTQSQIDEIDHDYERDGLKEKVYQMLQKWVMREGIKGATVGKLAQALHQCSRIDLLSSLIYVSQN
Method in brief: as §1

ERK4 = biological target: T7, ERK4 (Homo sapiens, UniProt P31152); conditions: ERK4, 1 uM
T7 construct: purchased Ambit KINOMEscan (DiscoverX)
Method in brief: as §1

TYRO3 = biological target: T8, TYRO3 (Homo sapiens, UniProt Q06418); conditions: TYRO3, 1 uM
T8 construct: purchased Ambit KINOMEscan (DiscoverX)
Method in brief: as §1

EGFR(L747-T751del,Sins) = biological target: T9, EGFR(L747-T751del,Sins) (Homo sapiens, UniProt P00533, DEL747-750/T751S); conditions: 1 uM
T9 construct: purchased Ambit KINOMEscan (DiscoverX)
Method in brief: as §1

NDR1 = biological target: T10, NDR1 (Homo sapiens, UniProt Q15208); conditions: NDR1, 1 uM
T10 construct: purchased Ambit KINOMEscan (DiscoverX)
Method in brief: as §1

HCK = biological target: T11, HCK (Homo sapiens, UniProt P08631); conditions: 1 uM
T11 construct: purchased Ambit KINOMEscan (DiscoverX)
Method in brief: as §1

MLK2 = biological target: T12, MLK2 (Homo sapiens, UniProt Q02779); conditions: MLK2, 1 uM
T12 construct: purchased Ambit KINOMEscan (DiscoverX)
Method in brief: as §1

ERK2 = biological target: T13, ERK2 (Homo sapiens, UniProt P28482); conditions: ERK2, 1 uM
T13 construct: purchased Ambit KINOMEscan (DiscoverX)
Method in brief: as §1

FLT3(ITD) = conditions: 1 uM
Method in brief: as §1

CIT = biological target: T14, CIT (Homo sapiens, UniProt O14578); conditions: 1 uM
T14 construct: purchased Ambit KINOMEscan (DiscoverX)
Method in brief: as §1

PIK3CD = biological target: T15, PIK3CD (Homo sapiens, UniProt O00329); conditions: 1 uM
T15 construct: purchased Ambit KINOMEscan (DiscoverX)
Method in brief: as §1

PIP5K2B = biological target: T16, PIP5K2B (Homo sapiens, UniProt P78356); conditions: 1 uM
T16 construct: purchased Ambit KINOMEscan (DiscoverX)
Method in brief: as §1

MET(Y1235D) = biological target: T17, MET(Y1235D) (Homo sapiens, UniProt P08581, Y1235D); conditions: 1 uM
T17 construct: purchased Ambit KINOMEscan (DiscoverX)
Method in brief: as §1

PAK6 = biological target: T18, PAK6 (Homo sapiens, UniProt Q9NQU5); conditions: PAK6, 1 uM
T18 construct: purchased Ambit KINOMEscan (DiscoverX)
Method in brief: as §1

SIK2 = biological target: T19, SIK2 (Homo sapiens, UniProt Q9H0K1); conditions: SIK2, 1 uM
T19 construct: purchased Ambit KINOMEscan (DiscoverX)
Method in brief: as §1

MARK2 = biological target: T20, MARK2 (Homo sapiens, UniProt Q7KZI7); conditions: MARK2, 1 uM
T20 construct: purchased Ambit KINOMEscan (DiscoverX)
T20 sequence (Q7KZI7 whole entry): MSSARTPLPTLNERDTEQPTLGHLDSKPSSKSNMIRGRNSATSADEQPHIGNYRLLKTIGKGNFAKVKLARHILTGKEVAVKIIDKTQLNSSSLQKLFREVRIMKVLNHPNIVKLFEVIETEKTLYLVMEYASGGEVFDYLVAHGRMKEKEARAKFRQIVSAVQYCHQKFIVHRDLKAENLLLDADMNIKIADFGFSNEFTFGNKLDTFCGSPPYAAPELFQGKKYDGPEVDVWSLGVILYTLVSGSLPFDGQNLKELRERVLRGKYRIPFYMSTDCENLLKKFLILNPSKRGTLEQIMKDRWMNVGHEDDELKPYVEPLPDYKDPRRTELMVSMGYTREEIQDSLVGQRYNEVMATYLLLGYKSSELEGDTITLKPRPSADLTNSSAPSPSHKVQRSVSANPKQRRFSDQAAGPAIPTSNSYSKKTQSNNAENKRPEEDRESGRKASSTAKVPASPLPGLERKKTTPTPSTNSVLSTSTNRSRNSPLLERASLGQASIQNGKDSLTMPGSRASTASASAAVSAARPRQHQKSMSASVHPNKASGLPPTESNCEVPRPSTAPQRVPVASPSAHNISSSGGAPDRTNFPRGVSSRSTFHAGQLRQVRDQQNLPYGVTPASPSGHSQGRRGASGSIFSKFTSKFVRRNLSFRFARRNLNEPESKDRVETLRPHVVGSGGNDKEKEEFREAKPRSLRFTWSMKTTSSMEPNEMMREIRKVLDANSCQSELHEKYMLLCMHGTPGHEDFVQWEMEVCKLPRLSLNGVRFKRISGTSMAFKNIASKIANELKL
Method in brief: as §1

IRAK1 = biological target: T21, IRAK1 (Homo sapiens, UniProt P51617); conditions: IRAK1, 1 uM
T21 construct: purchased Ambit KINOMEscan (DiscoverX)
Method in brief: as §1

DMPK = biological target: T22, DMPK (Homo sapiens, UniProt Q09013); conditions: 1 uM
T22 construct: purchased Ambit KINOMEscan (DiscoverX)
T22 sequence (Q09013 whole entry): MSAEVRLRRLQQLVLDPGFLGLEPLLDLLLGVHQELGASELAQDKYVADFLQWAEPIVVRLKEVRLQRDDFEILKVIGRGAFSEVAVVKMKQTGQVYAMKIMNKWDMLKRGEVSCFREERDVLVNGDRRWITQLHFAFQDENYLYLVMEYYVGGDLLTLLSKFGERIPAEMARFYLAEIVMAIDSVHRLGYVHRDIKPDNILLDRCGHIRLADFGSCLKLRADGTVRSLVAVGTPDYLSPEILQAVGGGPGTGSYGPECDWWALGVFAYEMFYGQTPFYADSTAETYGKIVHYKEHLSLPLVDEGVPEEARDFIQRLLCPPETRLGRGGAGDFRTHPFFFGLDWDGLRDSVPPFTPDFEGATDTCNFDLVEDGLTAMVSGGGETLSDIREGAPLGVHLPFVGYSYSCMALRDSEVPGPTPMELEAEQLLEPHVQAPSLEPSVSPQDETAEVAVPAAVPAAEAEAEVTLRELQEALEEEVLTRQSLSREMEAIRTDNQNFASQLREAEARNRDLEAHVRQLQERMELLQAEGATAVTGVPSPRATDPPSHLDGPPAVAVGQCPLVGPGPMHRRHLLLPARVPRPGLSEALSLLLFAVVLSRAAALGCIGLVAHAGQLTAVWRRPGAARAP
Method in brief: as §1

NDR2 = biological target: T23, NDR2 (Homo sapiens, UniProt Q9Y2H1); conditions: NDR2, 1 uM
T23 construct: purchased Ambit KINOMEscan (DiscoverX)
Method in brief: as §1

DDR1 = biological target: T24, DDR1 (Homo sapiens, UniProt Q08345); conditions: DDR1, 1 uM
T24 construct: purchased Ambit KINOMEscan (DiscoverX)
Method in brief: as §1

EPHA4 = biological target: T25, EPHA4 (Homo sapiens, UniProt P54764); conditions: EPHA4, 1 uM
T25 construct: purchased Ambit KINOMEscan (DiscoverX)
T25 sequence (P54764 20-986): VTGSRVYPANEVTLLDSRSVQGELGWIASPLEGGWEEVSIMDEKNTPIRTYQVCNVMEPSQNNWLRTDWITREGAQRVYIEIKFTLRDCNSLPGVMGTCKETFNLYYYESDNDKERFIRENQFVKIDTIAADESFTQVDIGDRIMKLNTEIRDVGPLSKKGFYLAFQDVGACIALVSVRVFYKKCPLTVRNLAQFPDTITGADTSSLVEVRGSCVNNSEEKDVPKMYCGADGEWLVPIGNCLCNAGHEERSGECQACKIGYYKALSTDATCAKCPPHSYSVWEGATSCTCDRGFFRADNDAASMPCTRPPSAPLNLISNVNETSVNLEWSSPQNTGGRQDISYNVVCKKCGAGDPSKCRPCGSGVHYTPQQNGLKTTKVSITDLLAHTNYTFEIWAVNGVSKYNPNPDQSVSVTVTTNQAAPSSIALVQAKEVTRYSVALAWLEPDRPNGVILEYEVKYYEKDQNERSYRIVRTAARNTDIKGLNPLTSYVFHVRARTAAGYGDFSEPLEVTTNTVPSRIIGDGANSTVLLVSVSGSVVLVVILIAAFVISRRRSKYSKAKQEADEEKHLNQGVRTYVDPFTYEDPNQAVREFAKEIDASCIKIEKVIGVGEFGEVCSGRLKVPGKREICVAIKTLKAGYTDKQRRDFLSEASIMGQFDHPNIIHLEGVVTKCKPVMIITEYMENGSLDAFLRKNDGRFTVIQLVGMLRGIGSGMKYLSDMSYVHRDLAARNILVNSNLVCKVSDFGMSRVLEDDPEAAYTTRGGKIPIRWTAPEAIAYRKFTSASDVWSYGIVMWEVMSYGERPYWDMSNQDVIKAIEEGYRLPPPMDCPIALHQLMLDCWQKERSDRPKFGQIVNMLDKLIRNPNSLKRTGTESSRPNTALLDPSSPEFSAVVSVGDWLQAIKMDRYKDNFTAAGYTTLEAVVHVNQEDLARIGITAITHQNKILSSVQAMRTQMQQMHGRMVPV
Method in brief: as §1

CSNK1A1 = biological target: T26, CSNK1A1 (Homo sapiens, UniProt P48729); conditions: CSNK1A1, 1 uM
T26 construct: purchased Ambit KINOMEscan (DiscoverX)
Method in brief: as §1

PRKCE = biological target: T27, PRKCE (Homo sapiens, UniProt Q02156); conditions: 1 uM
T27 construct: purchased Ambit KINOMEscan (DiscoverX)
Method in brief: as §1

TEC = biological target: T28, TEC (Homo sapiens, UniProt P42680); conditions: 1 uM
T28 construct: purchased Ambit KINOMEscan (DiscoverX)
Method in brief: as §1

CSNK1G3 = biological target: T29, CSNK1G3 (Homo sapiens, UniProt Q9Y6M4); conditions: CSNK1G3, 1 uM
T29 construct: purchased Ambit KINOMEscan (DiscoverX)
Method in brief: as §1

NEK6 = biological target: T30, NEK6 (Homo sapiens, UniProt Q9HC98); conditions: NEK6, 1 uM
T30 construct: purchased Ambit KINOMEscan (DiscoverX)
Method in brief: as §1

IKK-alpha = biological target: T31, IKK-alpha (Homo sapiens, UniProt O15111); conditions: 1 uM
T31 construct: purchased Ambit KINOMEscan (DiscoverX)
Method in brief: as §1

TAK1 = biological target: T32, TAK1 (Homo sapiens, UniProt O43318); conditions: TAK1, 1 uM
T32 construct: purchased Ambit KINOMEscan (DiscoverX)
Method in brief: as §1

CSF1R = biological target: T33, CSF1R (Homo sapiens, UniProt P07333); conditions: 1 uM
T33 construct: purchased Ambit KINOMEscan (DiscoverX)
Method in brief: as §1

PRKD2 = biological target: T34, PRKD2 (Homo sapiens, UniProt Q9BZL6); conditions: PRKD2, 1 uM
T34 construct: purchased Ambit KINOMEscan (DiscoverX)
T34 sequence (Q9BZL6 whole entry): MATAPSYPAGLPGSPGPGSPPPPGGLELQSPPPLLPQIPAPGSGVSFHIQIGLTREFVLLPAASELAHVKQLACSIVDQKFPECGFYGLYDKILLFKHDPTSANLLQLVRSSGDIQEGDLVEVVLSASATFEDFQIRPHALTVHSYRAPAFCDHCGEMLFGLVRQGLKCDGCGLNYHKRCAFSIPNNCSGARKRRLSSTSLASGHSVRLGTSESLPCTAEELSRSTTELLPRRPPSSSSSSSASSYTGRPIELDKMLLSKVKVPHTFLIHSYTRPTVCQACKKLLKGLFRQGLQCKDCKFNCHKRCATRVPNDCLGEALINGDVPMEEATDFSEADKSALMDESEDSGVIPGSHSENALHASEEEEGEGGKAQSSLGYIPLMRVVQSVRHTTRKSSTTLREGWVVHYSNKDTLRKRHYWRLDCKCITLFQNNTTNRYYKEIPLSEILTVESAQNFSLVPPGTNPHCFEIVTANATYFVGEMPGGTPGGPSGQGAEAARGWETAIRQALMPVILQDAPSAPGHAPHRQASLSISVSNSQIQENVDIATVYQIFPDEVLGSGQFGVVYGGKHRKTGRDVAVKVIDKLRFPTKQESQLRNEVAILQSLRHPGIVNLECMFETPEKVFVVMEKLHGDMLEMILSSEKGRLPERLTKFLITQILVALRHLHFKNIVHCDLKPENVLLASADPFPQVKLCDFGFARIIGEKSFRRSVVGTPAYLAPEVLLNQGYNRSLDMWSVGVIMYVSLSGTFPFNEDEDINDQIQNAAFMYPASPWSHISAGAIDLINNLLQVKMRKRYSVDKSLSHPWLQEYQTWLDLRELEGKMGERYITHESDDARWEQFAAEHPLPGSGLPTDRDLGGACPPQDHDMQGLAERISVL
Method in brief: as §1

[2] = biological target: T35, RPS6KA4(Kin.Dom.2-C-terminal) (Homo sapiens, UniProt O75676); conditions: 1 uM
T35 construct: RPS6KA4(Kin.Dom.2-C-terminal); purchased Ambit KINOMEscan (DiscoverX)
Method in brief: as §1

DAPK2 = biological target: T36, DAPK2 (Homo sapiens, UniProt Q9UIK4); conditions: DAPK2, 1 uM
T36 construct: purchased Ambit KINOMEscan (DiscoverX)
Method in brief: as §1

GRK7 = biological target: T37, GRK7 (Homo sapiens, UniProt Q8WTQ7); conditions: GRK7, 1 uM
T37 construct: purchased Ambit KINOMEscan (DiscoverX)
Method in brief: as §1

Row | Compound | % binding compared to no inhibitor control (GCN2(Kin.Dom.2,S808G)) | % binding compared to no inhibitor control [1] | % binding compared to no inhibitor control (SRMS) | % binding compared to no inhibitor control (PIK3CG) | % binding compared to no inhibitor control (AMPK-alpha1) | % binding compared to no inhibitor control (RIPK1) | % binding compared to no inhibitor control (ERK4) | % binding compared to no inhibitor control (TYRO3) | % binding compared to no inhibitor control (EGFR(L747-T751del,Sins)) | % binding compared to no inhibitor control (NDR1) | % binding compared to no inhibitor control (HCK) | % binding compared to no inhibitor control (MLK2) | % binding compared to no inhibitor control (ERK2) | % binding compared to no inhibitor control (FLT3(ITD)) | % binding compared to no inhibitor control (CIT) | % binding compared to no inhibitor control (PIK3CD) | % binding compared to no inhibitor control (PIP5K2B) | % binding compared to no inhibitor control (MET(Y1235D)) | % binding compared to no inhibitor control (PAK6) | % binding compared to no inhibitor control (SIK2) | also measured
1 | COc1ccc(-c2cc3nccn3c(Nc3ncccc3C(N)=O)n2)cc1OC.Cl.Cl [BAY61-3606, 2-[7-(3,4-dimethoxyphenyl)-imidazo [1,2-c]pyrimidin-5-ylamino] nicotinamide dihydrochloride, reference compound] | 54% | 99% | 65% | 26% | 92% | 86% | 87% | 94% | 80% | 80% | 88% | 91% | 68% | 2.1% | 0.4% | 81% | 100% | 100% | 65% | 100% | % binding compared to no inhibitor control (MARK2): 63%; % binding compared to no inhibitor control (IRAK1): 8%; % binding compared to no inhibitor control (DMPK): 72%; % binding compared to no inhibitor control (NDR2): 68%; % binding compared to no inhibitor control (DDR1): 99%; % binding compared to no inhibitor control (EPHA4): 91%; % binding compared to no inhibitor control (CSNK1A1): 100%; % binding compared to no inhibitor control (PRKCE): 30%; % binding compared to no inhibitor control (TEC): 100%; % binding compared to no inhibitor control (CSNK1G3): 81%; % binding compared to no inhibitor control (NEK6): 63%; % binding compared to no inhibitor control (IKK-alpha): 0.25%; % binding compared to no inhibitor control (TAK1): 63%; % binding compared to no inhibitor control (CSF1R): 51%; % binding compared to no inhibitor control (PRKD2): 53%; % binding compared to no inhibitor control [2]: 60%; % binding compared to no inhibitor control (DAPK2): 66%; % binding compared to no inhibitor control (GRK7): 59%
2 | COc1ccccc1Nc1nc(-c2ccc(OC)c(OC)c2)cc2nccn12 [BAY derivative 6] | 99% | 25% | 97% | 100% | 100% | 100% | 100% | 67% | 89% | 100% | 83% | 100% | 70% | 82% | 95% | 100% | 100% | 100% | 99% | 64% | % binding compared to no inhibitor control (MARK2): 65%; % binding compared to no inhibitor control (IRAK1): 92%; % binding compared to no inhibitor control (DMPK): 100%; % binding compared to no inhibitor control (NDR2): 93%; % binding compared to no inhibitor control (DDR1): 100%; % binding compared to no inhibitor control (EPHA4): 92%; % binding compared to no inhibitor control (CSNK1A1): 100%; % binding compared to no inhibitor control (PRKCE): 100%; % binding compared to no inhibitor control (TEC): 100%; % binding compared to no inhibitor control (CSNK1G3): 100%; % binding compared to no inhibitor control (NEK6): 100%; % binding compared to no inhibitor control (IKK-alpha): 100%; % binding compared to no inhibitor control (TAK1): 96%; % binding compared to no inhibitor control (CSF1R): 42%; % binding compared to no inhibitor control (PRKD2): 100%; % binding compared to no inhibitor control [2]: 86%; % binding compared to no inhibitor control (DAPK2): 100%; % binding compared to no inhibitor control (GRK7): 100%
